According to PMC5218480 (PLoS ONE, 2017):

Tested on: MV-4-11 cells
Test: Gene expression microarray analysis (Affymetrix PrimeView) and GSEA
Assay type: cell-based, human
Parameters: RFU PODN (11730768_x_at) / Fold change /veh PODN (11730768_x_at) / RFU LINC00158 (11744669_a_at) / Fold change /veh LINC00158 (11744669_a_at) / RFU DUSP10 (11751237_a_at) / Fold change /veh DUSP10 (11751237_a_at) / RFU ID3 (11757404_x_at) / Fold change /veh ID3 (11757404_x_at) / RFU PLEKHG5 (11737974_s_at) / Fold change /veh PLEKHG5 (11737974_s_at) / RFU LRRC4B (11730491_at) / Fold change /veh LRRC4B (11730491_at) / RFU GIMAP4 (11747438_a_at) / Fold change /veh GIMAP4 (11747438_a_at) / RFU KRT8 (11758183_x_at) / Fold change /veh KRT8 (11758183_x_at) / RFU CNN1 (11734310_a_at) / Fold change /veh CNN1 (11734310_a_at) / RFU VPS37D (11726825_at) / Fold change /veh VPS37D (11726825_at) / RFU C10orf10 (11716522_x_at) / Fold change /veh C10orf10 (11716522_x_at) / RFU KIR2DL2 /// KIR2DL4 /// KIR2DL5A /// KIR2DL5B /// KIR2DS1 /// KIR2DS2 /// KIR2DS3 /// KIR2DS4 /// KIR3DL3 /// KIR3DL3 /// KIR3DS1 (11738374_at) / Fold change /veh KIR2DL2 /// KIR2DL4 /// KIR2DL5A /// KIR2DL5B /// KIR2DS1 /// KIR2DS2 /// KIR2DS3 /// KIR2DS4 /// KIR3DL3 /// KIR3DL3 /// KIR3DS1 (11738374_at) / RFU C1QL1 (11718748_at) / Fold change /veh C1QL1 (11718748_at) / RFU TMPRSS4 (11747572_a_at) / Fold change /veh TMPRSS4 (11747572_a_at) / RFU HAMP (11756126_x_at) / Fold change /veh HAMP (11756126_x_at) / RFU RNFT2 (11725882_a_at) / Fold change /veh RNFT2 (11725882_a_at) / RFU NR4A2 (11747474_a_at) / Fold change /veh NR4A2 (11747474_a_at) / RFU ABCC12 (11746883_a_at) / Fold change /veh ABCC12 (11746883_a_at) / RFU TMEM136 (11760407_x_at) / Fold change /veh TMEM136 (11760407_x_at) / RFU CLDN22 /// WWC2 (11732394_at) / Fold change /veh CLDN22 /// WWC2 (11732394_at) / RFU HLA-DPB1 (11760878_x_at) / Fold change /veh HLA-DPB1 (11760878_x_at) / RFU SPINT1 (11716480_a_at) / Fold change /veh SPINT1 (11716480_a_at) / RFU GAP43 (11754022_s_at) / Fold change /veh GAP43 (11754022_s_at) / RFU A4GNT (11735810_at) / Fold change /veh A4GNT (11735810_at) / RFU PRB3 (11715151_x_at) / Fold change /veh PRB3 (11715151_x_at) / RFU TUBB4B (11761932_at) / Fold change /veh TUBB4B (11761932_at) / RFU CAPN14 (11732068_a_at) / Fold change /veh CAPN14 (11732068_a_at) / RFU TMCC2 (11721928_a_at) / Fold change /veh TMCC2 (11721928_a_at) / RFU IRGQ (11745062_a_at) / Fold change /veh IRGQ (11745062_a_at) / RFU FAM174B (11720279_a_at) / Fold change /veh FAM174B (11720279_a_at) / RFU TMPRSS4 (11748680_a_at) / Fold change /veh TMPRSS4 (11748680_a_at) / RFU FAM212B (11763350_a_at) / Fold change /veh FAM212B (11763350_a_at) / RFU PLEKHG5 (11743358_a_at) / Fold change /veh PLEKHG5 (11743358_a_at) / RFU ZSCAN30 (11745921_a_at) / Fold change /veh ZSCAN30 (11745921_a_at) / RFU CMKLR1 (11741424_a_at) / Fold change /veh CMKLR1 (11741424_a_at) / RFU LOC101060620 /// MAPK8IP1 (11723275_at) / Fold change /veh LOC101060620 /// MAPK8IP1 (11723275_at) / RFU SPTSSB (11747773_x_at) / Fold change /veh SPTSSB (11747773_x_at) / RFU PRSS12 (11739890_at) / Fold change /veh PRSS12 (11739890_at) / RFU BIN1 (11741810_x_at) / Fold change /veh BIN1 (11741810_x_at) / RFU WNT11 (11732464_a_at) / Fold change /veh WNT11 (11732464_a_at) / RFU C10orf10 (11716521_a_at) / Fold change /veh C10orf10 (11716521_a_at) / RFU C5orf56 (11738089_at) / Fold change /veh C5orf56 (11738089_at) / RFU CYB561 (11721691_x_at) / Fold change /veh CYB561 (11721691_x_at) / RFU ANKRD19P (11752326_a_at) / Fold change /veh ANKRD19P (11752326_a_at) / RFU OR2T12 /// OR2T33 /// OR2T8 (11738714_s_at) / Fold change /veh OR2T12 /// OR2T33 /// OR2T8 (11738714_s_at) / RFU VCAN (11748164_a_at) / Fold change /veh VCAN (11748164_a_at) / RFU JSRP1 (11732532_at) / Fold change /veh JSRP1 (11732532_at) / RFU KRTAP10-11 (11738290_x_at) / Fold change /veh KRTAP10-11 (11738290_x_at) / RFU MYO3A (11730013_a_at) / Fold change /veh MYO3A (11730013_a_at) / RFU EBF3 (11725865_a_at) / Fold change /veh EBF3 (11725865_a_at) / RFU CAMK2N1 (11719241_x_at) / Fold change /veh CAMK2N1 (11719241_x_at) / RFU C5orf56 (11738088_a_at) / Fold change /veh C5orf56 (11738088_a_at) / RFU OLFML3 (11715873_a_at) / Fold change /veh OLFML3 (11715873_a_at) / RFU LOC100653217 /// NTM (11731650_a_at) / Fold change /veh LOC100653217 /// NTM (11731650_a_at) / RFU MAPK11 (11762145_a_at) / Fold change /veh MAPK11 (11762145_a_at) / RFU FIZ1 (11724087_x_at) / Fold change /veh FIZ1 (11724087_x_at) / RFU OASL (11726364_x_at) / Fold change /veh OASL (11726364_x_at) / RFU SOX15 (11748057_x_at) / Fold change /veh SOX15 (11748057_x_at) / RFU CD79A (11719716_a_at) / Fold change /veh CD79A (11719716_a_at) / RFU HIST1H1D (11736915_at) / Fold change /veh HIST1H1D (11736915_at) / RFU CASKIN2 (11723855_a_at) / Fold change /veh CASKIN2 (11723855_a_at) / RFU LOC730098 (11760151_x_at) / Fold change /veh LOC730098 (11760151_x_at) / RFU OR4N2 (11742367_at) / Fold change /veh OR4N2 (11742367_at) / RFU PRRT2 (11749266_a_at) / Fold change /veh PRRT2 (11749266_a_at) / RFU SNX32 (11753110_a_at) / Fold change /veh SNX32 (11753110_a_at) / RFU CDHR5 (11726645_a_at) / Fold change /veh CDHR5 (11726645_a_at) / RFU RCAN1 (11760418_a_at) / Fold change /veh RCAN1 (11760418_a_at) / RFU FAM167A (11723789_a_at) / Fold change /veh FAM167A (11723789_a_at) / RFU FAM26E (11764081_at) / Fold change /veh FAM26E (11764081_at) / RFU ISYNA1 (11749810_s_at) / Fold change /veh ISYNA1 (11749810_s_at) / RFU ACY1 (11761880_at) / Fold change /veh ACY1 (11761880_at) / RFU 11764098_at / Fold change /veh 11764098_at / RFU SAMD14 (11745864_x_at) / Fold change /veh SAMD14 (11745864_x_at) / RFU NPB (11741838_a_at) / Fold change /veh NPB (11741838_a_at) / RFU TMPRSS6 (11731388_a_at) / Fold change /veh TMPRSS6 (11731388_a_at) / RFU KRTAP10-2 (11738614_at) / Fold change /veh KRTAP10-2 (11738614_at) / RFU ARHGAP8 /// PRR5-ARHGAP8 (11727945_x_at) / Fold change /veh ARHGAP8 /// PRR5-ARHGAP8 (11727945_x_at) / RFU KRTAP5-7 /// NADSYN1 (11734609_at) / Fold change /veh KRTAP5-7 /// NADSYN1 (11734609_at) / RFU RASL12 (11751679_a_at) / Fold change /veh RASL12 (11751679_a_at) / RFU CDKN2B (11736163_a_at) / Fold change /veh CDKN2B (11736163_a_at) / RFU PRF1 (11729649_at) / Fold change /veh PRF1 (11729649_at) / RFU, ZNF638 /// ZNF638-IT1 / Fold change vs veh, ZNF638 /// ZNF638-IT1 / RFU, PANK3 / Fold change vs veh, PANK3 / RFU, SH3YL1 / Fold change vs veh, SH3YL1 / RFU, ZEB2 / Fold change vs veh, ZEB2 / RFU, NRIP1 / Fold change vs veh, NRIP1 / RFU, PTTG1IP / Fold change vs veh, PTTG1IP / RFU, CAPN2 / Fold change vs veh, CAPN2 / RFU, MED14 / Fold change vs veh, MED14 / RFU, SNORA58 / Fold change vs veh, SNORA58 / RFU, C1orf63 / Fold change vs veh, C1orf63 / RFU, LRRFIP1 / Fold change vs veh, LRRFIP1 / RFU, NDUFAF7 / Fold change vs veh, NDUFAF7 / RFU, SLC12A2 / Fold change vs veh, SLC12A2 / RFU, IBTK / Fold change vs veh, IBTK / RFU, ESF1 / Fold change vs veh, ESF1 / Fold change vs veh, TMEM50B / RFU, TAOK1 / Fold change vs veh, TAOK1 / RFU, ACBD3 / Fold change vs veh, ACBD3 / RFU, TMA16 / Fold change vs veh, TMA16 / RFU, RWDD3 / Fold change vs veh, RWDD3 / RFU, BCAT1 / Fold change vs veh, BCAT1 / RFU, EDEM3 / Fold change vs veh, EDEM3 / RFU, TMEM33 / Fold change vs veh, TMEM33 / RFU, WDR75 / Fold change vs veh, WDR75 / RFU, AHCTF1 / Fold change vs veh, AHCTF1 / RFU, TFRC / Fold change vs veh, TFRC / RFU, ZDHHC17 / Fold change vs veh, ZDHHC17 / RFU, NOM1 / Fold change vs veh, NOM1 / RFU, ARL8B / Fold change vs veh, ARL8B / RFU, ZBTB11 / Fold change vs veh, ZBTB11 / RFU, TAMM41 / Fold change vs veh, TAMM41 / RFU, KIAA1704 /// LOC100996395 / Fold change vs veh, KIAA1704 /// LOC100996395 / RFU, ING1 / Fold change vs veh, ING1 / RFU, TRMT61B / Fold change vs veh, TRMT61B / RFU, FUBP3 / Fold change vs veh, FUBP3 / RFU, TP53 / Fold change vs veh, TP53 / RFU, TNKS2 / Fold change vs veh, TNKS2 / RFU, ZFP14 / Fold change vs veh, ZFP14 / RFU, ACTR2 / Fold change vs veh, ACTR2 / RFU, PPP3R1 / Fold change vs veh, PPP3R1 / RFU, PIK3R1 / Fold change vs veh, PIK3R1 / RFU, HNRNPA1 / Fold change vs veh, HNRNPA1 / RFU, RNF170 / Fold change vs veh, RNF170 / RFU, ZNF28 / Fold change vs veh, ZNF28 / RFU, RNGTT / Fold change vs veh, RNGTT / RFU, OGT / Fold change vs veh, OGT / RFU, BRD1 / Fold change vs veh, BRD1 / RFU, MARS / Fold change vs veh, MARS / RFU, ZNF655 / Fold change vs veh, ZNF655 / RFU, FAHD1 / Fold change vs veh, FAHD1 / RFU, BDP1 / Fold change vs veh, BDP1 / RFU, LRRCC1 / Fold change vs veh, LRRCC1 / RFU, ARID1A / Fold change vs veh, ARID1A / RFU, ZNF146 / Fold change vs veh, ZNF146 / RFU, ZNF330 / Fold change vs veh, ZNF330 / RFU, GPN3 / Fold change vs veh, GPN3 / RFU, C9orf123 / Fold change vs veh, C9orf123 / RFU, N4BP2L2 / Fold change vs veh, N4BP2L2 / RFU, ARFIP1 / Fold change vs veh, ARFIP1 / RFU, FAM179B / Fold change vs veh, FAM179B / RFU, BCL10 / Fold change vs veh, BCL10 / RFU, UHRF1BP1L / Fold change vs veh, UHRF1BP1L / RFU, BET1 / Fold change vs veh, BET1 / RFU, CNOT2 / Fold change vs veh, CNOT2 / RFU, ZNF268 / Fold change vs veh, ZNF268 / Fold change vs veh, ZNF507 / RFU, DGCR2 / Fold change vs veh, DGCR2 / RFU, WDSUB1 / Fold change vs veh, WDSUB1 / Fold change vs veh, HSP90B1 /// MIR3652 / RFU, ADSS / Fold change vs veh, ADSS / RFU, GK / Fold change vs veh, GK / RFU, ZNF148 / Fold change vs veh, ZNF148 / RFU, TAF9 / Fold change vs veh, TAF9 / RFU, SLC1A5 / Fold change vs veh, SLC1A5 / RFU, SLMO2 / Fold change vs veh, SLMO2 / RFU, ABCC4 / Fold change vs veh, ABCC4 / RFU, LOC101060439 /// RAP1B / Fold change vs veh, LOC101060439 /// RAP1B / RFU, RFX7 / Fold change vs veh, RFX7 / RFU, GTPBP10 / Fold change vs veh, GTPBP10 / RFU, CNEP1R1 / Fold change vs veh, CNEP1R1 / RFU, BIVM-ERCC5 /// ERCC5 / Fold change vs veh, BIVM-ERCC5 /// ERCC5 / RFU, ILF3 / Fold change vs veh, ILF3 / RFU 11762660_at / Fold change /veh 11762660_at / RFU VCAN (11757783_s_at) / Fold change /veh VCAN (11757783_s_at) / RFU DDX43 (11728927_at) / Fold change /veh DDX43 (11728927_at) / RFU KRT8 (11758188_x_at) / Fold change /veh KRT8 (11758188_x_at) / RFU NKD1 (11759106_at) / Fold change /veh NKD1 (11759106_at) / RFU SRD5A1 (11742802_a_at) / Fold change /veh SRD5A1 (11742802_a_at) / RFU TPSAB1 /// TPSB2 (11721975_s_at) / Fold change /veh TPSAB1 /// TPSB2 (11721975_s_at) / RFU GSTM3 (11746129_a_at) / Fold change /veh GSTM3 (11746129_a_at) / RFU IL23R (11737362_x_at) / Fold change /veh IL23R (11737362_x_at) / RFU TMEM51 (11727254_a_at) / Fold change /veh TMEM51 (11727254_a_at) / RFU PIWIL2 (11732686_x_at) / Fold change /veh PIWIL2 (11732686_x_at) / RFU ORM1 (11744905_x_at) / Fold change /veh ORM1 (11744905_x_at) / RFU CCDC152 (11743942_at) / Fold change /veh CCDC152 (11743942_at) / RFU ECM1 (11717891_a_at) / Fold change /veh ECM1 (11717891_a_at) / RFU IL23R (11748794_a_at) / Fold change /veh IL23R (11748794_a_at) / RFU TNFAIP8L3 (11732012_x_at) / Fold change /veh TNFAIP8L3 (11732012_x_at) / RFU MBOAT4 (11741988_at) / Fold change /veh MBOAT4 (11741988_at) / RFU 11764193_at / Fold change /veh 11764193_at / RFU TMEM53 (11763286_at) / Fold change /veh TMEM53 (11763286_at) / RFU MAGEB2 (11727129_at) / Fold change /veh MAGEB2 (11727129_at) / RFU TMEM200A (11744735_a_at) / Fold change /veh TMEM200A (11744735_a_at) / RFU CCDC152 (11751479_a_at) / Fold change /veh CCDC152 (11751479_a_at) / RFU FAM211A (11726209_a_at) / Fold change /veh FAM211A (11726209_a_at) / RFU RGS16 (11746705_a_at) / Fold change /veh RGS16 (11746705_a_at) / RFU VCAN (11755009_s_at) / Fold change /veh VCAN (11755009_s_at) / RFU RHOB (11743442_s_at) / Fold change /veh RHOB (11743442_s_at) / RFU RGS16 (11720943_a_at) / Fold change /veh RGS16 (11720943_a_at) / RFU RGS16 (11720944_at) / Fold change /veh RGS16 (11720944_at) / RFU, VPS4B / Fold change vs veh, VPS4B / RFU, CREB1 / Fold change vs veh, CREB1 / RFU, DNAJC13 / Fold change vs veh, DNAJC13 / RFU, GNAQ / Fold change vs veh, GNAQ / RFU, CDK5R1 / Fold change vs veh, CDK5R1 / RFU, ZRANB3 / Fold change vs veh, ZRANB3 / RFU, CUL4A / Fold change vs veh, CUL4A / RFU, CCNY / Fold change vs veh, CCNY / RFU, UFL1 / Fold change vs veh, UFL1 / RFU, COG3 / Fold change vs veh, COG3 / RFU, DIAPH2 / Fold change vs veh, DIAPH2 / RFU, SKA2 / Fold change vs veh, SKA2 / RFU, AFF3 / Fold change vs veh, AFF3 / RFU, LMF1 / Fold change vs veh, LMF1 / RFU, IPO11 / Fold change vs veh, IPO11 / RFU, DFFB / Fold change vs veh, DFFB / RFU, FOXP1 / Fold change vs veh, FOXP1 / RFU, CARD8 / Fold change vs veh, CARD8 / RFU, STRN3 / Fold change vs veh, STRN3 / RFU, ADK / Fold change vs veh, ADK / RFU, RASSF2 / Fold change vs veh, RASSF2 / RFU, WIPF1 / Fold change vs veh, WIPF1 / RFU, LARP1B / Fold change vs veh, LARP1B / RFU, RASA1 / Fold change vs veh, RASA1 / RFU, RB1 / Fold change vs veh, RB1 / RFU, PPFIA1 / Fold change vs veh, PPFIA1 / RFU, MAT2A / Fold change vs veh, MAT2A / RFU, CCT5 / Fold change vs veh, CCT5 / RFU, WDR92 / Fold change vs veh, WDR92 / RFU, CUX1 / Fold change vs veh, CUX1 / RFU, TTC7A / Fold change vs veh, TTC7A / RFU, TMEM135 / Fold change vs veh, TMEM135 / RFU, DEPTOR / Fold change vs veh, DEPTOR / RFU, CPM / Fold change vs veh, CPM / RFU, DNAJB6 / Fold change vs veh, DNAJB6 / RFU, CACNA2D3 / Fold change vs veh, CACNA2D3 / RFU, DTX4 / Fold change vs veh, DTX4 / RFU, TFCP2 / Fold change vs veh, TFCP2 / RFU, GMCL1 /// GMCL1P1 / Fold change vs veh, GMCL1 /// GMCL1P1 / RFU, AEBP2 / Fold change vs veh, AEBP2 / RFU, SNHG1 /// SNORD22 /// SNORD25 /// SNORD26 /// SNORD27 /// SNORD28 /// SNORD29 /// SNORD31 / Fold change vs veh, SNHG1 /// SNORD22 /// SNORD25 /// SNORD26 /// SNORD27 /// SNORD28 /// SNORD29 /// SNORD31 / Fold change (Aza/veh), C12orf56 (ProbeSet 11735607_a_at) / Fold change (ACY-1035/veh), C12orf56 (ProbeSet 11735607_a_at) / Fold change (Aza/veh), FGFR1OP (ProbeSet 11751329_s_at) / Fold change (ACY-1035/veh), FGFR1OP (ProbeSet 11751329_s_at) / Fold change (Aza/veh), VPS36 (ProbeSet 11739960_a_at) / Fold change (ACY-1035/veh), VPS36 (ProbeSet 11739960_a_at) / RFU SYPL1 (11715823_x_at) / Fold change /veh SYPL1 (11715823_x_at) / RFU IGFBP7 (11715501_s_at) / Fold change /veh IGFBP7 (11715501_s_at) / RFU REEP3 (11722064_at) / Fold change /veh REEP3 (11722064_at) / RFU IGLL1 (11728026_x_at) / Fold change /veh IGLL1 (11728026_x_at): dose or concentration left out as unconfirmed
Settings: ProbeSet 11764057_s_at; LIST B

## Nc1ccc(-c2cccs2)cc1NC(=O)c1ccc2c(c1)cc(C1CC1)n2CCN1CCOCC1 [ACY-1035]
  RFU, C1orf63: 108.16 RFU
